# From patent US4973578A, “Synthetic peptides derived from the alpha-subunit of human lycoprotein hormones” (Mayo Foundation for Medical Education and Research, priority 1988, dated 1990)
# Values joined by “and” are separate entries in the source; they are usually repeats but may differ in a detail not shown here. Identical values can stand only once. “Also recorded” adds a separate entry of the source. Residues, ends and D or L forms follow the SMILES beside them.
# Assays:
# [1] = biological target: T1, TSH receptor on human thyroid membranes (Homo sapiens, UniProt P16473); experiment: TSH radioreceptor assay: inhibition of 125I-bTSH binding to human thyroid membrane preparations; conditions: for IC50: human thyroid membrane homogenates, ± S.E., read-out: bTSH ED50 (effective dose necessary to inhibit binding of 125I-bTSH by 50%); for inhibition of 125I-bTSH binding, result in words: human thyroid membranes
# T1 construct: Thyroid tissue obtained at surgery from patients with Graves' disease was prepared as described by Takahashi et al; from tissue; host or cells: human thyroid tissue from Graves' disease patients, 2000xg membrane fraction
# T1 sequence (P16473 21-764): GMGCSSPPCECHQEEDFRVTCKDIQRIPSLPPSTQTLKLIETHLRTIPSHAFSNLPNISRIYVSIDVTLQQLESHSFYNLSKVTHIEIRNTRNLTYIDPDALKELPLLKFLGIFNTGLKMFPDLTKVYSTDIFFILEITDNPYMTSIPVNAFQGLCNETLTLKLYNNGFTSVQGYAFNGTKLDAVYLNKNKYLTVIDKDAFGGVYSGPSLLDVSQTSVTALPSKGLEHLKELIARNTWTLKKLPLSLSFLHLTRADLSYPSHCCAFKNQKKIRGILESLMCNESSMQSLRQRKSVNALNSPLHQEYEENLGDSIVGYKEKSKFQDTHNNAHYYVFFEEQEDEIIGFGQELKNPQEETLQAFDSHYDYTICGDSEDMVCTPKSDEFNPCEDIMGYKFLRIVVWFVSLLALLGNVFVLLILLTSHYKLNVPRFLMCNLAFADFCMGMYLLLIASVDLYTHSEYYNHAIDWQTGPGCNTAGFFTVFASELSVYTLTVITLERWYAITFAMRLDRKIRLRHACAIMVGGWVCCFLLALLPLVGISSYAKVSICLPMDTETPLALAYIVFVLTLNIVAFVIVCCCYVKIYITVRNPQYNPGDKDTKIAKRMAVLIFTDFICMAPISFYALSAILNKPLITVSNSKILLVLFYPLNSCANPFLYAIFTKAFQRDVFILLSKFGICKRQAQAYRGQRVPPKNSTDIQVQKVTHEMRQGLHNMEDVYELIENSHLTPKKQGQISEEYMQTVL
# Description: Thyroid tissue obtained at surgery from patients with Graves' disease was prepared as described by Takahashi et al., J. Clin. Endocrinol. Metab. 47:870 (1978), the disclosure of which is incorporated herein. Briefly, the tissue was dissected free of fibrous material, minced with scissors, and homogenized with Polytron homogenizer. The 2000×g fraction was collected by centrifugation, washed and resuspended in 40 mM Tris, 0.1% Bovine Serum Albumin (BSA) pH 7.4 at a concentration of 100 mg equivalents of wet tissue per milliliter. The preparation was stored at -70° C. until used for assay.
# Highly purified bovine TSH (30 IU/mg, supplied by Dr. J. G. Pierce, UCLA) was radio-iodinated (Na^125 I, Amersham, Chicago) by a gentle lactoperoxidase procedure described by Takahashi et al., supra, then purified by Sephadex G-100 chromatography.
# The membrane assay incubation mixture consisted of […] of the 2000×g membrane fraction, 0.125 ng ^125 I bTSH (approximately 20,000 cpm, 5×10^-12 M), 100 ul of 1% Triton X-100 and noted amounts of test materials in a final volume of 0.5 ml of 40 mM Tris-HCl pH 7.4 plus 0.1% BSA. Nonspecific binding was determined by addition of excess unlabeled bTSH (200 mU/ml, Sigma, St. Louis). After 2 hrs incubation at 25° C., 200 ul of 5 mg/ml bovine gamma globulin and 1 ml 30% polyethylene glycol 6000 (Baker, Phillipsburg, N.J.) in 1M NaCl was added to each tube and the tubes centrifuged at 4000 rpm for 25 minutes. The supernatants were aspirated and pellets counted in a gamma counter. Specific binding averaged 25% of total counts.
# FIG. 1 reports 5×10^-12 M labeled bTSH incubated with 10 mg equivalents (wet weight) of 2000×g fraction of thyroid membranes with varying concentrations of unlabeled TSH or synthetic α-subunit peptides. Nonspecific binding was determined in the presence of excess unlabeled TSH.
# [2] = tested on: TSH mediated cAMP generation in FRTL-5 cells; experiment: Inhibition of TSH mediated cAMP generation in FRTL-5 cells; format: cell-based, rat; conditions: for percent inhibition of TSH mediated cAMP generation: 200 mU/L bTSH, 2 hrs 37° C.
# Description: FRTL-5 cells were maintained in Ham's F-12 medium supplemented with 5% calf serum and a 6 hormone preparation including 10 mU/ml bTSH as described by Ambesi-Impiombato et al., Proc. Natl. Acad. Sci. U.S.A., 77:3455 (1980), the disclosure of which is incorporated herein. For all assays herein described, the cells were plated in 24 well plates and grown for 3 days at 37° C. then maintained for 5-7 days in medium supplemented with 10 ug insulin alone prior to assay.
# The bioassay was a modification of those previously described by Bidey et al, J. Endocrinol., 101:269 (1984); and Kasagi et al., ACTA Endocrinol., 115:30 (1987). To duplicate culture wells were added varying concentrations of test materials (see below) in a final volume of 300 ul of NaCl free HBSS with 0.5 mM iso-butyl-methyl-xanthine (IBMX, Sigma, St. Louis). In stimulation assays, only synthetic α-subunit peptides were added to the incubation medium. For inhibition assays, the noted concentrations of synthetic α-subunit peptides were added immediately prior to the addition of 200 mU/L bTSH. The plates were incubated at 37° C. in 5% CO2 for 2 hrs then 100 ul of incubation medium was removed and diluted in 900 ul of 0.05M sodium acetate pH 6.2 and assayed for cAMP content by RIA in accordance with procedures described by Wray and Glinos, Am. J. Physiol., 234 (Cell Phisol. 3):C131(1978)); and Steiner et al., J. Biol. Chem., 247:1106 (1972). […] Basal cAMP levels were determined in the presence of HBSS and IBMX alone. In inhibition assays percent inhibition was calculated as follows: [formula]
# FIG. 4 reports data obtained for TSH deprived FRTL-5 cells incubated with a fixed amount of bTSH (200 mU/l) by itself or with various concentrations of synthetic peptides. cAMP content of medium was measured after 2 hrs. incubation at 37° C. Percent inhibition of cAMP generation was calculated as noted above.
# [3] = Solubility of peptide in assay buffers; format: physicochemical
# [4] = tested on: thyroid stimulating immunoglobulin (TSI) stimulated cAMP in FRTL-5 cells; experiment: TSI bioassay: inhibition of thyroid stimulating immunoglobulin activity (PEG-precipitated patient immunoglobulin) in FRTL-5 cells; format: cell-based, rat; conditions: for Percent inhibition of TSI activity, mean: mean of patient samples tested
# Text: Ten patients (8 women and 2 men) with Graves' disease and high levels of TSI were identified after evaluation by FRTL-5 cell bioassay in the clinical chemistry laboratory. (FRTL-5 bioassay described below employing known TSH receptor recognition of various species hormones) Consecutive samples that had indices greater than 15 and sufficient serum remaining for further evaluation were chosen. Seven of the 10 had serum thyroxine values above the normal range and 9 of 10 had TSH levels below the euthyroid range by sensitive immunoradiometric assay [Boots-Celltech Sucrosep, Berkshire, UK, conducted as described in Klee and Hay, J. Clin. Endocrinol. Metab., 64:461 (1987)]. (FIG. 5). For comparison serum from 13 normal subjects was examined for TSI at the same serum dilution as the patient sera. (FIG. 5).
# FRTL-5 cells were maintained in Ham's F-12 medium supplemented with 5% calf serum and a 6-hormone preparation (6H) as described by Ambesi-Impiombato, supra. The cells were removed from flasks enzymatically, plated at 150,000 cells per well in 24 well plates, and grown in 6H medium for 4 days. The medium was then replaced with fresh medium supplemented with insulin only (1H) for 7 days prior to assay. The bioassay was a modification of that described by Kasagi et al., supra. Briefly, immunoglobulins were precipitated from 2 ml of serum with 6 ml 20% polyethylene glycol 6000 (Baker, Phillipsburg, N.J.), centrifuged at 2800×g for 20 minutes, and then reconstituted in 2.4 ml buffer (NaCl-free Hanks balanced salt solution, NaCl-free HBSS), containing 1 mM iso-butyl-methyl-xanthine (IBMX, Sigma, St. Louis) and 1.5% BSA. After washing the cells with HBSS, 150 ul of buffer was added to the wells plus varying concentrations of synthetic α-subunit peptides followed immediately by 150 ul of the crude immunoglobulin extract. The plates were incubated for 2 hours at 37° C., 5% CO2 after which 100 ul of medium was removed and diluted in 900 ul 50 mM sodium acetate buffer, pH 6.2. cAMP content was determined by radioimmunoassay using the procedures described in Wray and Glinos, supra and Steiner et al., supra. Basal cAMP levels were determined in the absence of immunoglobulin extract and synthetic peptides for each plate. Basal and maximum levels were determined in quadruplicate; peptide effects were measured in duplicate at each concentration.
# Percent increase in cAMP levels over basal was calculated as below: [formula]
# Percent inhibition of TSI activity by the synthetic α-subunit peptides was calculated as follows: [formula]
# cAMP levels in the presence of synthetic peptides were compared to maximum levels using student's T test for paired samples. Mean percent inhibition between different peptides were compared with student's T test for independent samples. Correlations were determined by Pearson's R.
structure (smiles),measurement,setting,value
"CC[C@H](C)[C@H](NC(=O)[C@@H]1CCCN1C(=O)[C@H](C)NC(=O)CNC(=O)[C@@H]1CCCN1)C(=O)N[C@@H](CC(C)C)C(=O)N[C@@H](CCC(N)=O)C(=O)N[C@@H](CS)C(=O)N[C@@H](CCSC)C(=O)NCC(=O)N[C@@H](CS)C(=O)N[C@@H](CS)C(=O)N[C@@H](Cc1ccccc1)C(=O)N[C@@H](CO)C(=O)N[C@@H](CCCNC(=N)N)C(N)=O [α21-35, Pro--Gly--Ala--Pro--Ile--Leu--Gln--Cys--Met--Gly--Cys--Cys--Phe--Ser--Arg] (H-PGAPILQCMGCCFSR-NH2)",displacement of 125I-bTSH label,"[1]; at concentrations greater than 1×10^-5 m, FIG. 1",more than 80%
same,IC50,[1],39.9 ± 0.4 µM
same,"inhibition of 125I-bTSH binding, result in words",[1]; FIG. 1,dose dependent inhibition
same,percent inhibition of TSH mediated cAMP generation,[2]; peptide 66.7 ug/ml,33.88%
same,percent inhibition of TSH mediated cAMP generation,[2]; peptide 133.3 ug/ml,52.50%
same,behaviour in cell binding assay buffer,[3]; FRTL-5 cell binding assay buffer,precipitated in the assay buffer
same,behaviour in soluble membrane assay,[3]; soluble membrane assay (FIG. 1),remained in solution
"C[C@H](N)C(=O)N[C@@H](CS)C(=O)N[C@@H](Cc1c[nH]cn1)C(=O)N[C@@H](CS)C(=O)N[C@@H](CO)C(=O)N[C@H](C(=O)N[C@@H](CS)C(=O)N[C@@H](Cc1ccc(O)cc1)C(=O)N[C@@H](Cc1ccc(O)cc1)C(=O)N[C@@H](Cc1c[nH]cn1)C(=O)N[C@@H](CCCCN)C(=O)N[C@@H](CO)C(=O)O)[C@@H](C)O [α81-92, Ala--Cys--His--Cys--Ser--Thr--Cys--Tyr--Tyr--His--Lys--Ser(OH)] (H-ACHCSTCYYHKS-OH)",IC50,[1],175 ± 3.8 µM
same,"inhibition of 125I-bTSH binding, result in words",[1]; FIG. 1,dose dependent inhibition; also recorded: considerably less potent
same,percent inhibition of TSH mediated cAMP generation,[2]; peptide 66.7 ug/ml,18.03%
same,percent inhibition of TSH mediated cAMP generation,[2]; peptide 133.3 ug/ml,20.83%
same,"inhibition of TSH mediated cAMP generation, in words",[2]; same concentrations as the active peptides,did not significantly inhibit TSH stimulation of cAMP production; also recorded: little or no ability to inhibit TSH mediated cAMP generation
same,"inhibition of cAMP generated by patient immunoglobulin, in words",[4]; FIG. 7 and Table 6,did not significantly inhibit
same,Percent inhibition of TSI activity,"[4]; Pt. sample D, peptide 66.7 ug/ml",-18.5%
same,Percent inhibition of TSI activity,"[4]; Pt. sample D, peptide 133 ug/ml",-7.8%
same,Percent inhibition of TSI activity,"[4]; Pt. sample E, peptide 66.7 ug/ml",29.7%
same,Percent inhibition of TSI activity,"[4]; Pt. sample E, peptide 133 ug/ml",33.6%
same,Percent inhibition of TSI activity,"[4]; Pt. sample F, peptide 66.7 ug/ml",9.6%
same,Percent inhibition of TSI activity,"[4]; Pt. sample F, peptide 133 ug/ml",-5.1%
same,Percent inhibition of TSI activity,"[4]; Pt. sample G, peptide 66.7 ug/ml",19.0%
same,Percent inhibition of TSI activity,"[4]; Pt. sample G, peptide 133 ug/ml",14.5%
same,Percent inhibition of TSI activity,"[4]; Pt. sample H, peptide 66.7 ug/ml",0.6%
same,Percent inhibition of TSI activity,"[4]; Pt. sample H, peptide 133 ug/ml",-11.4%
same,Percent inhibition of TSI activity,"[4]; Pt. sample I, peptide 66.7 ug/ml",-13.3%
same,Percent inhibition of TSI activity,"[4]; Pt. sample I, peptide 133 ug/ml",-17.0%
same,Percent inhibition of TSI activity,"[4]; Pt. sample J, peptide 66.7 ug/ml",-2.0%
same,Percent inhibition of TSI activity,"[4]; Pt. sample J, peptide 133 ug/ml",-7.7%
same,"Percent inhibition of TSI activity, mean",[4]; peptide 66.7 ug/ml,3.6%
same,"Percent inhibition of TSI activity, mean",[4]; peptide 133 ug/ml,-0.1±6.2% and -0.1%
same,patient Ig samples with statistically significant inhibition of cAMP,[4]; peptide 133 ug/ml,none of the 7
